# US20220273678A1 (priority 2020, published 2022)
# Tests used:
# [1] = test system: SARS-CoV-2 Delta variant; assay type: cell-based; conditions: 1000 nM Mito-MES; 1000 nM dTPP; CoQ10 1000-2000 nM
# [2] = test system: SARS-CoV-2 Beta variant; assay type: cell-based; conditions: for antiviral activity against Beta variant, viral titer assay: hACE2 HEK293T, 1000 nM dTPP, CoQ10 1000-2000 nM
# [3] = test system: SARS-CoV-2 Beta variant; set-up: species or system mice; conditions: mouse, in vivo
# [4] = test system: SARS-CoV-2 Delta variant; assay: microbe, parasite or virus in culture; assay type: cell-based; conditions: Severe acute respiratory syndrome coronavirus 2, Calu-3
# [5] = test system: SARS-CoV-2 Beta; assay: microbe, parasite or virus in culture; assay type: cell-based; conditions: Severe acute respiratory syndrome coronavirus 2, Calu-3
# [6] = test system: SARS-CoV-2 Delta variant; set-up: species or system mice; conditions: mouse, in vivo
Compound,antiviral activity against Delta variant in ALI lung cultures [1],"antiviral activity against Beta variant, viral titer assay [2]","IL-lb, IL-6, TNFa in the lung [3]","cleaved caspase 3 in lung, immunofluorescence [3]",frequency of NK cells in lungs [3],histopathology: lung inflammation and tissue damage [3],IC50 [4],"time-of-addition study, intracellular N protein [2]",IC50 [5],"SARS-CoV-2 N protein in lungs, ELISA [6]","reduction of viral titer relative to vehicle ([6]; po, 20 mg/kg)"
"COC1=C(OC)C(=O)C(C/C=C(\C)CC/C=C(\C)CC/C=C(\C)CC/C=C(\C)CC/C=C(\C)CC/C=C(\C)CC/C=C(\C)CC/C=C(\C)CC/C=C(\C)CCC=C(C)C)=C(C)C1=O [CoQ10, Coenzyme Q10]",only higher concentrations (1000-2000 nM),only higher concentrations (1000-2000 nM),,,,,,,,,
"COC1=C(OC)C(=O)C(CCCCCCCCCC[P+](c2ccccc2)(c2ccccc2)c2ccccc2)=C(C)C1=O.CS(=O)(=O)[O-] [Mito-MES, 10-(4,5-dimethoxy-2-methyl-3,6-dioxo-1,4-cyclohexadienyl) decyl triphenylphosphonium methanesulfonate]",inhibited SARS-CoV-2 Delta variants in ALI lung cultures,,"reduction in IL-lb, IL-6, TNFa",inhibited SARS-CoV-2-associated increase in cleaved caspase 3,reduced frequency of NK cells,reduction of lung inflammation and tissue damage,41 nM,also even when added 4 hours after infection,34 nM,further confirmed by ELISA,~3 log units
CCCCCCCCCC[P+](c1ccccc1)(c1ccccc1)c1ccccc1.[Br-] [dTPP],potent antiviral activity,potent antiviral activity,,,,,,reduced SARS-CoV-2 entry and had less impact on SARS-CoV-2 cytoplasmic replication,,,
